Experiments:
Test in all cases: Post-emergence application in field trials
PORPI = type: in vivo; conditions: 8 DAT; g ai/ha A-1 25, B-5 1066; height 2-8 cm; water volume 140 l/ha
GLXMA = type: in vivo, Glycine max; conditions: Example 4; 21 DAT; g ai/ha A-1 12.5, B-5 1066; growth stage 13; height 5-8 cm
SETVE = conditions: growth stage 21-23
HORVW = conditions: growth stage 23-29, height 20-25 cm
CYPES = conditions: 21 DAT, water volume 140 l/ha
ZEAMX = conditions: growth stage 15-16
AMAPA = test system: AMAPA
DATST = test system: DATST
ECHCG = type: in vivo, Echinochloa crus-galli
SETVI = type: in vivo, Setaria viridis; conditions: 15 DAT; g ai/ha A-1 12.5, B-5 1066, C-10 840; growth stage 13-19; height 2-18 cm; water volume 140 l/ha
AMARE = type: in vivo, Amaranthus retroflexus; conditions: 8 DAT; g ai/ha A-1 25, B-5 1066; growth stage 19; height 10-20 cm; water volume 140 l/ha
DIGSA = test system: DIGSA
AMATU = type: in vivo, Amaranthus tuberculatos; conditions: 8 DAT; g ai/ha A-1 12.5, B-5 1066; growth stage 19; height 10-20 cm; water volume 140 l/ha

Compound: C[N+](C)(C)CCO.O=C([O-])COc1ccc(Cl)cc1Cl [B-5, 2,4-D choline]
- % Herbicidal activity (PORPI): 50%
- % Herbicidal activity (GLXMA): 55%
- % Herbicidal activity (SETVE; Example 4, 21 DAT, g ai/ha A-1 12.5, B-5 1066, height 8-16 cm): 25%
- % Herbicidal activity (SETVE; Example 6, 7 DAT, g ai/ha A-1 12.5, B-5 1066, C-11 400, height 10-15 cm): 15%
- % Herbicidal activity (SETVE; Example 6, 21 DAT, g ai/ha A-1 12.5, B-5 1066, C-11 400, height 10-15 cm): 0%
- % Herbicidal activity (HORVW; Example 4, 21 DAT, g ai/ha A-1 12.5, B-5 1066): 0%
- % Herbicidal activity (HORVW; Example 6, 28 DAT, g ai/ha A-1 12.5, B-5 1066, C-11 400): 0%
- % Herbicidal activity (HORVW; Example 8, 21 DAT, g ai/ha A-1 12.5, B-5 1066, C-12 252): 0%
- % Herbicidal activity (HORVW; Example 10, 21 DAT, g ai/ha A-1 12.5, B-5 1066, C-4 12.5): 0%
- % Herbicidal activity (CYPES; g ai/ha A-1 12.5, B-5 1066, C-11 655): 0%
- % Herbicidal activity (CYPES; g ai/ha A-1 50, B-5 1066, C-11 655): 0%
- % Herbicidal activity (CYPES; g ai/ha A-1 50, B-5 1066): 0%
- % Herbicidal activity (ZEAMX; Example 4, 7 DAT, g ai/ha A-1 18, B-5 1066, height 50-60 cm): 7%
- % Herbicidal activity (ZEAMX; Example 4, 21 DAT, g ai/ha A-1 12.5, B-5 1066, height 50-60 cm): 10%
- % Herbicidal activity (ZEAMX; Example 6, 7 DAT, g ai/ha A-1 12.5, B-5 1066, C-11 400, height 25-30 cm): 0%
- % Herbicidal activity (ZEAMX; Example 6, 28 DAT, g ai/ha A-1 12.5, B-5 1066, C-11 400, height 50-60 cm): 0%
- % Herbicidal activity (ZEAMX; Example 8, 28 DAT, g ai/ha A-1 12.5, B-5 1066, C-12 252, height 50-60 cm): 0%
- % Herbicidal activity (AMAPA; 13 DAT, g ai/ha A-1 25, B-5 1066, growth stage 16, height 15-25 cm, water volume 187 l/ha): 53%
- % Herbicidal activity (AMAPA; 14 DAT, g ai/ha A-1 12.5, B-5 1066, C-10 840, growth stage 12-24, height 5-30 cm, water volume 140 l/ha): 66%
- % Herbicidal activity (AMAPA; 14 DAT, g ai/ha A-1 25, B-5 1066, C-10 840, growth stage 12-24, height 5-30 cm, water volume 140 l/ha): 66%
- % Herbicidal activity (AMAPA; 19 DAT, g ai/ha A-1 12.5, B-5 1066, growth stage 16, height 15-25 cm, water volume 187 l/ha): 55%
- % Herbicidal activity (AMAPA; 19 DAT, g ai/ha A-1 25, B-5 1066, growth stage 16, height 15-25 cm, water volume 187 l/ha): 55%
- % Herbicidal activity (AMAPA; 19 DAT, g ai/ha A-1 50, B-5 1066, growth stage 16, height 15-25 cm, water volume 187 l/ha): 55%
- % Herbicidal activity (AMAPA; 21 DAT, g ai/ha A-1 12.5, B-5 1066, growth stage 12-28, height 7-20 cm, water volume 140 l/ha): 63%
- % Herbicidal activity (AMAPA; 21 DAT, g ai/ha A-1 50, B-5 1066, height 5-23 cm, water volume 140 l/ha): 78%
- % Herbicidal activity (DATST; Example 4, 7 DAT, g ai/ha A-1 12.5, B-5 1066): 35%
- % Herbicidal activity (DATST; Example 6, 21 DAT, g ai/ha A-1 12.5, B-5 1066, C-11 400): 40%
- % Herbicidal activity (ECHCG; 13 DAT, g ai/ha A-1 12.5, B-5 1066, C-10 840, growth stage 21-26, height 15-30 cm, water volume 187 l/ha): 0%
- % Herbicidal activity (ECHCG; 13 DAT, g ai/ha A-1 25, B-5 1066, C-10 840, growth stage 21-26, height 15-30 cm, water volume 187 l/ha): 0%
- % Herbicidal activity (ECHCG; 13 DAT, g ai/ha A-1 50, B-5 1066, C-10 840, growth stage 21-26, height 15-30 cm, water volume 187 l/ha): 0%
- % Herbicidal activity (ECHCG; Example 4, 21 DAT, g ai/ha A-1 12.5, B-5 1066, growth stage 23-30, height 15-20 cm): 0%
- % Herbicidal activity (ECHCG; Example 6, 7 DAT, g ai/ha A-1 12.5, B-5 1066, C-11 400, growth stage 23-30, height 15-20 cm): 0%
- % Herbicidal activity (ECHCG; Example 6, 28 DAT, g ai/ha A-1 12.5, B-5 1066, C-11 400, growth stage 23-30, height 15-20 cm): 0%
- % Herbicidal activity (ECHCG; Example 8, 7 DAT, g ai/ha A-1 12.5, B-5 1066, C-12 252, growth stage 23-30, height 15-20 cm): 0%
- % Herbicidal activity (ECHCG; Example 8, 21 DAT, g ai/ha A-1 12.5, B-5 1066, C-12 252, growth stage 23-30, height 15-20 cm): 0%
- % Herbicidal activity (ECHCG; Example 8, 28 DAT, g ai/ha A-1 12.5, B-5 1066, C-12 252, growth stage 23-30, height 15-20 cm): 0%
- % Herbicidal activity (ECHCG; Example 10, 21 DAT, g ai/ha A-1 12.5, B-5 1066, C-4 12.5, growth stage 23-30, height 15-20 cm): 0%
- % Herbicidal activity (SETVI): 27%
- % Herbicidal activity (AMARE): 83%
- % Herbicidal activity (DIGSA; 14 DAT, g ai/ha A-1 12.5, B-5 1066, height 2-8 cm, water volume 140 l/ha): 0%
- % Herbicidal activity (DIGSA; 14 DAT, g ai/ha A-1 25, B-5 1066, height 2-8 cm, water volume 140 l/ha): 0%
- % Herbicidal activity (DIGSA; 14 DAT, g ai/ha A-1 50, B-5 1066, height 2-8 cm, water volume 140 l/ha): 0%
- % Herbicidal activity (DIGSA; 15 DAT, g ai/ha A-1 12.5, B-5 1066, C-10 840, growth stage 13-19, height 2-13 cm, water volume 140 l/ha): 27%
- % Herbicidal activity (DIGSA; 21 DAT, g ai/ha A-1 12.5, B-5 1066, C-11 655, height 2-8 cm, water volume 140 l/ha): 0%
- % Herbicidal activity (DIGSA; 21 DAT, g ai/ha A-1 12.5, B-5 1066, height 2-8 cm, water volume 140 l/ha): 0%
- % Herbicidal activity (DIGSA; 21 DAT, g ai/ha A-1 25, B-5 1066, C-11 655, height 2-8 cm, water volume 140 l/ha): 0%
- % Herbicidal activity (DIGSA; 21 DAT, g ai/ha A-1 25, B-5 1066, height 2-8 cm, water volume 140 l/ha): 0%
- % Herbicidal activity (DIGSA; 21 DAT, g ai/ha A-1 50, B-5 1066, C-11 655, height 2-8 cm, water volume 140 l/ha): 0%
- % Herbicidal activity (DIGSA; 21 DAT, g ai/ha A-1 50, B-5 1066, height 2-8 cm, water volume 140 l/ha): 0%
- % Herbicidal activity (DIGSA; Example 6, 7 DAT, g ai/ha A-1 12.5, B-5 1066, C-11 400, growth stage 21-22, height 15-20 cm): 20%
- % Herbicidal activity (DIGSA; Example 6, 21 DAT, g ai/ha A-1 12.5, B-5 1066, C-11 400, growth stage 21-22, height 15-20 cm): 20%
- % Herbicidal activity (AMATU): 83%

Source: patent US12708116B2, “Herbicidal compositions comprising 2,4-D” (BASF SE, priority 2023, dated 2026)
